The text below walks through data of US9040663B2, “Melanocortin receptor-specific peptides” (AstraZeneca AB, priority 2009, dated 2015).

In one assay the target is MC1-R. Description: Competitive inhibition binding assay using [I125]-NDP-α-MSH, MC1-R. The conditions noted are these: membranes of B-16 mouse melanoma cells (endogenous MC1-R), in some instances HEK-293 hMC1-R. Here is the method:
7.1 Competitive Inhibition Assay using [I^125]-NDP-α-MSH.
A competitive inhibition binding assay was performed for exemplified peptides according to the invention using membrane homogenates prepared from HEK-293 cells that express recombinant hMC4-R, hMC3-R, or hMC5-R, and from B-16 mouse melanoma cells (containing endogenous MC1-R). In some instances, HEK-293 cells that express recombinant hMC1-R were employed. Assays were performed in 96 well GF/B Millipore multiscreen filtration plates (MAFB NOB10) pre-coated with 0.5% bovine serum albumin (Fraction V). Membrane homogenates were incubated with 0.2 nM (for hMC4-R) 0.4 nM (for MC3-R and MC5-R) or 0.1 nM (for mouse B16 MC1-R or hMC1-R) [I^125]-NDP-α-MSH (Perkin Elmer) and increasing concentrations of test peptides of the present invention in buffer containing 25 mM HEPES buffer (pH 7.5) with 100 mM NaCl, 2 mM CaCl2, 2 mM MgCl2, 0.3 mM 1,10-phenanthroline, and 0.2% bovine serum albumin. After incubation for 60 minutes at 37° C., the assay mixture was filtered and the membranes washed three times with ice-cold buffer. Filters were dried and counted in a gamma counter for bound radioactivity. […] Maximal specific binding (100%) was defined as the difference in radioactivity (cpm) bound to cell membranes in the absence and presence of 1 μM NDP-α-MSH. […] Each assay was conducted in triplicate and the actual mean values are described, with results less than 0% reported as 0%. Ki values for test peptides of the present invention were determined using Graph-Pad Prism® curve-fitting software.

Assay [1] has as its target T1, hMC4-R (Homo sapiens (Human), UniProt P32245). Put plainly: High and low density hMC4-R functional assay (cAMP, HEK293-T-REx-MC4-R cells). It is filed as cell-based. To be noted: for Emax: NDP-α-MSH = 100%, read-out: Intrinsic Activity (%).
The target in assay [2] is T1, hMC4-R. Put plainly: Competitive inhibition binding assay using [I125]-NDP-α-MSH, hMC4-R. The conditions noted are these: membranes of HEK-293 cells expressing recombinant hMC4-R, read-out: MC4-R Ki.
Setting [3] is: 0.1 ng/mL Doxycycline (low density hMC4-R system).
Setting [4] is: 10 ng/mL Doxycycline (high density hMC4-R system).

Where two headings read alike, the source gives them in different places. Positions of bridges follow the written chain, without caps; N, C: chain ends. Non-standard residues stand in square brackets, D forms with d. Residues, ends and D or L forms follow the SMILES beside them. dPhe(4-CN) = N#Cc1ccc(C[C@@H](N)C(=O)O)cc1; dPhe(3-Cl) = N[C@H](Cc1cccc(Cl)c1)C(=O)O; dPhe(2-F) = N[C@H](Cc1ccccc1F)C(=O)O; Orn = NCCC[C@H](N)C(=O)O

T1 sequence (P32245 whole entry): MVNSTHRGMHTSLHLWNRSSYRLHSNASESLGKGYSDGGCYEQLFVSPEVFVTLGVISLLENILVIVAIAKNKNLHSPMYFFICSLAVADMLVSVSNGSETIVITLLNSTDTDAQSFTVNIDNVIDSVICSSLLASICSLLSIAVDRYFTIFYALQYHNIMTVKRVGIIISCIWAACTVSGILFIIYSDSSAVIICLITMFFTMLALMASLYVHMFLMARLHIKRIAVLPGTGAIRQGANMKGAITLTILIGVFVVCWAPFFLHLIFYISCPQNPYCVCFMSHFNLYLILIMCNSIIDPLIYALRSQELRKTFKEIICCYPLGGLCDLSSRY

Broadly, the Ki is a measure of affinity in units of concentration, obtained from inhibition or displacement. Broadly, the EC50 is the concentration giving half of the maximal effect. Low readings indicate a more potent agent, high ones a less potent agent. Consider `CC(=O)N[C@@H](CCCNC(=N)N)C(=O)N[C@H]1CCC(=O)NCCC[C@@H](C(N)=O)NC(=O)[C@H](Cc2c[nH]c3ccccc23)NC(=O)[C@H](CCCNC(=N)N)NC(=O)[C@@H](Cc2ccccc2F)NC(=O)[C@H](CO)NC1=O` [Example 58, Ac-Arg-cyclo(Glu-Ser-D-Phe(2-F)-Arg-Trp-Orn)-NH2], for which the Ki on MC1-R came to 138 nM. At hMC4-R [1] (setting [3]), a half-maximal effect (EC50) was put at 5 nM and the Emax amounted to 67%. In addition, on hMC4-R [1] (setting [4]), the EC50 turned out to be 0.25 nM and the Emax was found to be 100%.
Turning to `CC(=O)N[C@@H](CCCNC(=N)N)C(=O)N[C@H]1CCCNC(=O)CC[C@@H](C(N)=O)NC(=O)[C@H](Cc2c[nH]c3ccccc23)NC(=O)[C@H](CCCNC(=N)N)NC(=O)[C@@H](Cc2ccc(C#N)cc2)NC(=O)[C@H](CC(N)=O)NC1=O` [Example 91, Ac-Arg-cyclo(Orn-Asn-D-Phe(4-CN)-Arg-Trp-Glu)-NH2], the inhibition constant (Ki) at hMC4-R [2] worked out at 4 nM. In addition, at hMC4-R [1] (setting [3]), the EC50 is 1 nM and the Emax worked out at 18%. Further, on hMC4-R [1] (setting [4]), the EC50 worked out at 0.265 nM and the Emax turned out to be 96%.
As for `CC(=O)N[C@@H](CCCNC(=N)N)C(=O)N[C@H]1CCC(=O)NCCC[C@@H](C(N)=O)NC(=O)[C@H](Cc2c[nH]c3ccccc23)NC(=O)[C@H](CCCNC(=N)N)NC(=O)[C@@H](Cc2ccc(F)cc2)NC(=O)[C@H](CCC(N)=O)NC1=O` [Example 92, Ac-Arg-cyclo(Glu-Gln-D-Phe(4-F)-Arg-Trp-Orn)-NH2], on hMC4-R [2], the Ki amounted to 2 nM. Besides, at hMC4-R [1] (setting [3]), the EC50 worked out at 0.1 nM and the Emax was 81%. For the same compound, the Emax at hMC4-R [1] (setting [4]) came out at 89%.
Turning to `CC(=O)N[C@@H](CCCNC(=N)N)C(=O)N[C@H]1CCCCNC(=O)C[C@@H](C(N)=O)NC(=O)[C@H](Cc2c[nH]c3ccccc23)NC(=O)[C@H](CCCNC(=N)N)NC(=O)[C@@H](Cc2ccc(C#N)cc2)NC(=O)[C@H](CCC(N)=O)NC1=O` [Example 93, Ac-Arg-cyclo(Lys-Gln-D-Phe(4-CN)-Arg-Trp-Asp)-NH2] (Ac-RKQ[dPhe(4-CN)]RWD-NH2; lactam 2-7), the Ki on hMC4-R [2] was 1 nM. In addition, on hMC4-R [1] (setting [3]), the EC50 was found to be 0.3 nM and the Emax was 44%. Further, at hMC4-R [1] (setting [4]), the midpoint of the response, the EC50, lay at 0.17 nM and the Emax is 97%.
In the same order, the values of `CC(=O)N[C@@H](CCCNC(=N)N)C(=O)N[C@H]1CCC(=O)NCCC[C@@H](C(N)=O)NC(=O)[C@H](Cc2c[nH]c3ccccc23)NC(=O)[C@H](CCCNC(=N)N)NC(=O)[C@@H](Cc2cc(F)c(F)c(F)c2)NC(=O)[C@H](CC(N)=O)NC1=O` [Example 95, Ac-Arg-cyclo(Glu-Asn-D-Phe(3,4,5-triF)-Arg-Trp-Orn)-NH2] are 3 nM, 1 nM, 42%, 0.125 nM and 100%.
`CC(=O)N[C@@H](CCCNC(=N)N)C(=O)N[C@H]1CCCNC(=O)CC[C@@H](C(N)=O)NC(=O)[C@H](Cc2c[nH]c3ccccc23)NC(=O)[C@H](CCCNC(=N)N)NC(=O)[C@@H](Cc2cc(F)c(F)c(F)c2)NC(=O)[C@H](CC(N)=O)NC1=O` [Example 96, Ac-Arg-cyclo(Orn-Asn-D-Phe(3,4,5-triF)-Arg-Trp-Glu)-NH2]: the Ki on hMC4-R [2] was 2 nM. Besides, on hMC4-R [1] (setting [3]), the EC50 turned out to be 2 nM and the Emax was 24%. For the same compound, on hMC4-R [1] (setting [4]), the EC50 came out at 0.235 nM and the Emax came out at 100%.
On to `CC(=O)N[C@@H](CCCNC(=N)N)C(=O)N[C@H]1CCC(=O)NCCC[C@@H](C(N)=O)NC(=O)[C@H](Cc2c[nH]c3ccccc23)NC(=O)[C@H](CCCNC(=N)N)NC(=O)[C@@H](Cc2cccc(Cl)c2)NC(=O)[C@H](CCCNC(N)=O)NC1=O` [Example 99, Ac-Arg-cyclo(Glu-Arg-D-Phe(3-Cl)-Arg-Trp-Orn)-NH2], for which, on hMC4-R [2], the Ki was 0.5 nM. In addition, the concentration for a half-maximal effect (EC50) at hMC4-R [1] (setting [3]) was determined as 0.7 nM; on hMC4-R [1] (setting [4]) it was 0.14 nM. In addition, the Emax came to 32% on hMC4-R [1] (setting [3]) and 94% at hMC4-R [1] (setting [4]).
For the compound `CC(=O)N[C@@H](CCCNC(=N)N)C(=O)N[C@H]1CCC(=O)NCCC[C@@H](C(N)=O)NC(=O)[C@H](Cc2c[nH]c3ccccc23)NC(=O)[C@H](CCCNC(=N)N)NC(=O)[C@@H](Cc2cccc(Cl)c2)NC(=O)[C@H](CCCCN)NC1=O` [Example 100, Ac-Arg-cyclo(Glu-Lys-D-Phe(3-Cl)-Arg-Trp-Orn)-NH2] (Ac-REK[dPhe(3-Cl)]RW[Orn]-NH2; lactam 2-7), the inhibition constant Ki at hMC4-R [2] turned out to be 4 nM. Moreover, at hMC4-R [1] (setting [3]), the EC50 was 6 nM and the Emax amounted to 27%. On hMC4-R [1] (setting [4]), the Emax amounted to 93%.
For the compound `CC(=O)N[C@@H](CCCNC(=N)N)C(=O)N[C@H]1CCC(=O)NCCC[C@@H](C(N)=O)NC(=O)[C@H](Cc2c[nH]c3ccccc23)NC(=O)[C@H](CCCNC(=N)N)NC(=O)[C@@H](Cc2cccc(Cl)c2)NC(=O)[C@H](CCCN)NC1=O` [Example 101, Ac-Arg-cyclo(Glu-Orn-D-Phe(3-Cl)-Arg-Trp-Orn)-NH2], the Ki on hMC4-R [2] turned out to be 1 nM. Also, on hMC4-R [1] (setting [3]), the half-maximal effective concentration (EC50) is 0.95 nM and the Emax stood at 36%. Besides, on hMC4-R [1] (setting [4]), the EC50 stood at 0.14 nM and the Emax was found to be 93%.
As to `CC(=O)N[C@@H](CCCNC(=N)N)C(=O)N[C@H]1CC(=O)NCCCC[C@@H](C(N)=O)NC(=O)[C@H](Cc2c[nH]c3ccccc23)NC(=O)[C@H](CCCNC(=N)N)NC(=O)[C@@H](Cc2ccc(F)cc2)NC(=O)[C@@H]2CCCN2C1=O` [Example 103, Ac-Arg-cyclo(Asp-Pro-D-Phe(4-F)-Arg-Trp-Lys)-NH2], at hMC4-R [2], the Ki was 4 nM. On hMC4-R [1] (setting [3]), the EC50 came out at 1 nM and the Emax came out at 32%. Besides, on hMC4-R [1] (setting [4]), a half-maximal effect (EC50) was put at 0.13 nM and the Emax stood at 100%.
In the same order, the values of `CC(=O)N[C@@H](CCCNC(=N)N)C(=O)N[C@H]1CCCNC(=O)CC[C@@H](C(N)=O)NC(=O)[C@H](Cc2c[nH]c3ccccc23)NC(=O)[C@H](CCCNC(=N)N)NC(=O)[C@@H](Cc2ccccc2F)NC(=O)[C@@H]2CCCN2C1=O` [Example 105, Ac-Arg-cyclo(Orn-Pro-D-Phe(2-F)-Arg-Trp-Glu)-NH2] (Ac-R[Orn]P[dPhe(2-F)]RWE-NH2; lactam 2-7) are 7 nM, 3 nM, 35%, 0.15 nM and 94%.
Turning to `CC(=O)N[C@@H](CCCNC(=N)N)C(=O)N[C@H]1CCCNC(=O)CC[C@@H](C(N)=O)NC(=O)[C@H](Cc2c[nH]c3ccccc23)NC(=O)[C@H](CCCNC(=N)N)NC(=O)[C@@H](Cc2ccccc2C)NC(=O)[C@H](CCC(N)=O)NC1=O` [Example 111, Ac-Arg-cyclo(Orn-Gln-D-Phe(2-Me)-Arg-Trp-Glu)-NH2], at hMC4-R [2], the Ki stood at 6 nM. Also, the Emax at hMC4-R [1] (setting [3]) stood at 81%; on hMC4-R [1] (setting [4]), 104%.
Regarding `CC(=O)N[C@@H](CCCNC(=N)N)C(=O)N[C@H]1CCCNC(=O)CC[C@@H](C(N)=O)NC(=O)[C@H](Cc2c[nH]c3ccccc23)NC(=O)[C@H](CCCNC(=N)N)NC(=O)[C@@H](Cc2ccccc2Cl)NC(=O)[C@H](CCC(N)=O)NC1=O` [Example 112, Ac-Arg-cyclo(Orn-Gln-D-Phe(2-Cl)-Arg-Trp-Glu)-NH2], the Ki at hMC4-R [2] is 4 nM. The Emax at hMC4-R [1] (setting [3]) turned out to be 83%; at hMC4-R [1] (setting [4]), 101%. At hMC4-R [1] (setting [4]), this compound came in with an EC50 of 0.07 nM.
As to `CC(=O)N[C@@H](CCCNC(=N)N)C(=O)N[C@H]1CCCNC(=O)CC[C@@H](C(N)=O)NC(=O)[C@H](Cc2c[nH]c3ccccc23)NC(=O)[C@H](CCCNC(=N)N)NC(=O)[C@@H](Cc2ccccc2Cl)NC(=O)[C@H](CC(N)=O)NC1=O` [Example 113, Ac-Arg-cyclo(Orn-Asn-D-Phe(2-Cl)-Arg-Trp-Glu)-NH2], the Ki at hMC4-R [2] came to 7 nM. The values for the Emax at hMC4-R [1] (setting [3]) and on hMC4-R [1] (setting [4]) were 80% and 100%, respectively. Besides, the EC50 at hMC4-R [1] (setting [4]) was found to be 0.065 nM.
Taken in the same sequence, the figures for `CC(=O)N[C@@H](CCCNC(=N)N)C(=O)N[C@H]1CCC(=O)NCCC[C@@H](C(N)=O)NC(=O)[C@H](Cc2c[nH]c3ccccc23)NC(=O)[C@H](CCCNC(=N)N)NC(=O)[C@@H](Cc2ccccc2C(F)(F)F)NC(=O)[C@H](CC(N)=O)NC1=O` [Example 116, Ac-Arg-cyclo(Glu-Asn-D-Phe(2-CF3)-Arg-Trp-Orn)-NH2] were 7 nM, 77%, 104% and 0.095 nM.
Take `CC(=O)N[C@@H](CCCNC(=N)N)C(=O)N[C@H]1CCCNC(=O)CC[C@@H](C(N)=O)NC(=O)[C@H](Cc2c[nH]c3ccccc23)NC(=O)[C@H](CCCNC(=N)N)NC(=O)[C@@H](Cc2ccccc2C(F)(F)F)NC(=O)[C@H](CC(N)=O)NC1=O` [Example 117, Ac-Arg-cyclo(Orn-Asn-D-Phe(2-CF3)-Arg-Trp-Glu)-NH2]: at hMC4-R [2], the Ki was determined as 5 nM. For the same compound, on hMC4-R [1] (setting [3]), a half-maximal response (EC50) required 1 nM and the Emax came out at 50%. Besides, the Emax at hMC4-R [1] (setting [4]) came out at 112%.
